{"source": "patent US7138361B2", "about": "“Herbicidal heterocycles” (E. I. du Pont de Nemours and Company, priority 2000, dated 2006)", "assay_in_all_cases": "Test C postemergence", "assay_type_in_all_cases": "in vivo", "key": {"[1]": {"system": "Surinam grass (Brachiaria decumbens)", "procedure,_shortened": "(§1)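 Pre- and postemergence treatments used a non-phytotoxic solvent/surfactant formulation; post-treated plants measured 2 to 18 cm. Greenhouse hold 12–14 d; % control estimated visually relative to controls.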"}, "[2]": {"system": "chickweed (Stellaria media)", "procedure,_shortened": "as §1"}, "[3]": {"system": "cocklebur (Xanthium strumarium)", "procedure,_shortened": "as §1"}, "[4]": {"system": "common ragweed (Ambrosia elatior)", "procedure,_shortened": "as §1"}, "[5]": {"system": "corn (Zea mays)", "procedure,_shortened": "as §1"}, "[6]": {"system": "crabgrass (Digitaria sanguinalis)", "procedure,_shortened": "as §1"}, "[7]": {"system": "giant foxtail (Setaria faberii)", "procedure,_shortened": "as §1"}, "[8]": {"system": "goosegrass (Eleusine indica)", "procedure,_shortened": "as §1"}, "[9]": {"system": "johnsongrass (Sorghum halepense)", "procedure,_shortened": "as §1"}, "[10]": {"system": "kochia (Kochia scoparia)", "procedure,_shortened": "as §1"}, "[11]": {"system": "morningglory (Ipomoea hederacea)", "procedure,_shortened": "as §1"}, "[12]": {"system": "pigweed (Amaranthus retroflexus)", "procedure,_shortened": "as §1"}, "[13]": {"system": "soybean (Glycine max)", "procedure,_shortened": "as §1"}, "[14]": {"system": "velvetleaf (Abutilon theophrasti)", "procedure,_shortened": "as §1"}, "[15]": {"system": "woolly cupgrass (Eriochloa villosa)", "procedure,_shortened": "as §1"}, "[16]": {"system": "yellow nutsedge (Cyperus esculentus)", "procedure,_shortened": "as §1"}, "[17]": {"conditions": "Rate 125 g/ha, scale 0 to 100, 0 no effect, 100 complete control"}, "[18]": {"conditions": "Rate 250 g/ha, scale 0 to 100 (0 no effect, 100 complete control)"}}}
{"compound": "CCC(CC)c1ccn(C2CCN(c3ccc(C)c(OC)c3)C2=O)n1", "note": "(stereo not shown) [Compound 81]", "values": [{"measurement": "Plant response rating, Surinam grass", "setting": "[1]; Rate 31 g/ha, scale 0 to 100", "result": 0}, {"measurement": "Plant response rating, Surinam grass", "setting": "[1]; Rate 62 g/ha, scale 0 to 100", "result": 0}, {"measurement": "Plant response rating, Surinam grass", "setting": "[1]; [17]", "result": 0}, {"measurement": "Plant response rating, Surinam grass", "setting": "[1]; [18]", "result": 0}, {"measurement": "Plant response rating, Chickweed", "setting": "[2]; Rate 31 g/ha, scale 0 to 100", "result": 0}, {"measurement": "Plant response rating, Chickweed", "setting": "[2]; Rate 62 g/ha, scale 0 to 100", "result": 20}, {"measurement": "Plant response rating, Chickweed", "setting": "[2]; [17]", "result": 20}, {"measurement": "Plant response rating, Chickweed", "setting": "[2]; [18]", "result": 60}, {"measurement": "Plant response rating, Cocklebur", "setting": "[3]; Rate 31 g/ha, scale 0 to 100", "result": 0}, {"measurement": "Plant response rating, Cocklebur", "setting": "[3]; Rate 62 g/ha, scale 0 to 100", "result": 0}, {"measurement": "Plant response rating, Cocklebur", "setting": "[3]; [17]", "result": 20}, {"measurement": "Plant response rating, Cocklebur", "setting": "[3]; [18]", "result": 50}, {"measurement": "Plant response rating, Ragweed, Common", "setting": "[4]; Rate 31 g/ha, scale 0 to 100", "result": 0}, {"measurement": "Plant response rating, Ragweed, Common", "setting": "[4]; Rate 62 g/ha, scale 0 to 100", "result": 0}, {"measurement": "Plant response rating, Ragweed, Common", "setting": "[4]; [17]", "result": 0}, {"measurement": "Plant response rating, Ragweed, Common", "setting": "[4]; [18]", "result": 0}, {"measurement": "Plant response rating, Corn", "setting": "[5]; Rate 31 g/ha, scale 0 to 100", "result": 0}, {"measurement": "Plant response rating, Corn", "setting": "[5]; Rate 62 g/ha, scale 0 to 100", "result": 0}, {"measurement": "Plant response rating, Corn", "setting": "[5]; [17]", "result": 0}, {"measurement": "Plant response rating, Corn", "setting": "[5]; [18]", "result": 0}, {"measurement": "Plant response rating, Crabgrass", "setting": "[6]; Rate 31 g/ha, scale 0 to 100", "result": 0}, {"measurement": "Plant response rating, Crabgrass", "setting": "[6]; Rate 62 g/ha, scale 0 to 100", "result": 0}, {"measurement": "Plant response rating, Crabgrass", "setting": "[6]; [17]", "result": 0}, {"measurement": "Plant response rating, Crabgrass", "setting": "[6]; [18]", "result": 0}, {"measurement": "Plant response rating, Foxtail, Giant", "setting": "[7]; Rate 31 g/ha, scale 0 to 100", "result": 0}, {"measurement": "Plant response rating, Foxtail, Giant", "setting": "[7]; Rate 62 g/ha, scale 0 to 100", "result": 0}, {"measurement": "Plant response rating, Foxtail, Giant", "setting": "[7]; [17]", "result": 0}, {"measurement": "Plant response rating, Foxtail, Giant", "setting": "[7]; [18]", "result": 0}, {"measurement": "Plant response rating, Goosegrass", "setting": "[8]; Rate 31 g/ha, scale 0 to 100", "result": 0}, {"measurement": "Plant response rating, Goosegrass", "setting": "[8]; Rate 62 g/ha, scale 0 to 100", "result": 0}, {"measurement": "Plant response rating, Goosegrass", "setting": "[8]; [17]", "result": 0}, {"measurement": "Plant response rating, Goosegrass", "setting": "[8]; [18]", "result": 20}, {"measurement": "Plant response rating, Johnsongrass", "setting": "[9]; Rate 31 g/ha, scale 0 to 100", "result": 0}, {"measurement": "Plant response rating, Johnsongrass", "setting": "[9]; Rate 62 g/ha, scale 0 to 100", "result": 0}, {"measurement": "Plant response rating, Johnsongrass", "setting": "[9]; [17]", "result": 0}, {"measurement": "Plant response rating, Johnsongrass", "setting": "[9]; [18]", "result": 0}, {"measurement": "Plant response rating, Kochia", "setting": "[10]; Rate 31 g/ha, scale 0 to 100", "result": 40}, {"measurement": "Plant response rating, Kochia", "setting": "[10]; Rate 62 g/ha, scale 0 to 100", "result": 50}, {"measurement": "Plant response rating, Kochia", "setting": "[10]; [17]", "result": 50}, {"measurement": "Plant response rating, Kochia", "setting": "[10]; [18]", "result": 70}, {"measurement": "Plant response rating, Morningglory", "setting": "[11]; Rate 31 g/ha, scale 0 to 100", "result": 50}, {"measurement": "Plant response rating, Morningglory", "setting": "[11]; Rate 62 g/ha, scale 0 to 100", "result": 60}, {"measurement": "Plant response rating, Morningglory", "setting": "[11]; [17]", "result": 80}, {"measurement": "Plant response rating, Morningglory", "setting": "[11]; [18]", "result": 80}, {"measurement": "Plant response rating, Pigweed", "setting": "[12]; Rate 31 g/ha, scale 0 to 100", "result": 0}, {"measurement": "Plant response rating, Pigweed", "setting": "[12]; Rate 62 g/ha, scale 0 to 100", "result": 0}, {"measurement": "Plant response rating, Pigweed", "setting": "[12]; [17]", "result": 0}, {"measurement": "Plant response rating, Pigweed", "setting": "[12]; [18]", "result": 60}, {"measurement": "Plant response rating, Soybean", "setting": "[13]; Rate 31 g/ha, scale 0 to 100", "result": 50}, {"measurement": "Plant response rating, Soybean", "setting": "[13]; Rate 62 g/ha, scale 0 to 100", "result": 60}, {"measurement": "Plant response rating, Soybean", "setting": "[13]; [17]", "result": 70}, {"measurement": "Plant response rating, Soybean", "setting": "[13]; [18]", "result": 90}, {"measurement": "Plant response rating, Velvetleaf", "setting": "[14]; Rate 31 g/ha, scale 0 to 100", "result": 20}, {"measurement": "Plant response rating, Velvetleaf", "setting": "[14]; Rate 62 g/ha, scale 0 to 100", "result": 20}, {"measurement": "Plant response rating, Velvetleaf", "setting": "[14]; [17]", "result": 20}, {"measurement": "Plant response rating, Velvetleaf", "setting": "[14]; [18]", "result": 20}, {"measurement": "Plant response rating, Cupgrass, Woolly", "setting": "[15]; Rate 31 g/ha, scale 0 to 100", "result": 0}, {"measurement": "Plant response rating, Cupgrass, Woolly", "setting": "[15]; Rate 62 g/ha, scale 0 to 100", "result": 0}, {"measurement": "Plant response rating, Cupgrass, Woolly", "setting": "[15]; [17]", "result": 0}, {"measurement": "Plant response rating, Cupgrass, Woolly", "setting": "[15]; [18]", "result": 0}, {"measurement": "Plant response rating, Nutsedge", "setting": "[16]; Rate 31 g/ha, scale 0 to 100", "result": 0}, {"measurement": "Plant response rating, Nutsedge", "setting": "[16]; Rate 62 g/ha, scale 0 to 100", "result": 0}, {"measurement": "Plant response rating, Nutsedge", "setting": "[16]; [17]", "result": 0}, {"measurement": "Plant response rating, Nutsedge", "setting": "[16]; [18]", "result": 0}]}
